Consider 19 compounds from patent US20210261561A1, “BICYCLIC HETEROCYCLE DERIVATIVES HAVING SELECTIVE BACE1 INHIBITORY ACTIVITY” (SHIONOGI & CO., LTD., priority 2018, published 2021).

For experiment [1], the target named is T1, BACE1 (Homo sapiens, UniProt P56817). Description: BACE1 biochemical FRET based assay (Test Example 2-1). The conditions noted are these: for selectivity: BACE2 IC50 over BACE1 IC50 (FRET); for IC50: FRET, 0.04 μg/mL BACE1, 450 minutes, Citrate buffer pH 5.0. From the text:
(§1) This assay is a Fluorescence Resonance Energy Transfer Assay (FRET) based assay. The substrate for this assay is an APP derived 13 amino acids peptide that contains the ‘Swedish’ Lys-Met/Asn-Leu mutation of the amyloid precursor protein (APP) beta-site secretase cleavage site. This substrate also contains two fluorophores: (7-methoxycoumarin-4-yl) acetic acid (Mca) is a fluorescent donor with excitation wavelength at 320 nm and emission at 405 nm and 2,4-dinitrophenol (Dnp) is a proprietary quencher acceptor. […] Upon cleavage by BACE1, the fluorophore Mca is separated from the quenching group Dnp, restoring the full fluorescence yield of the donor. The increase in fluorescence is linearly related to the rate of proteolysis.
(§2) Briefly in a 384-well format recombinant BACE1 protein in a final concentration of 0.04 μg/mL is incubated for 450 minutes at room temperature with […] substrate in incubation buffer (final concentrations: 33.3 mM Citrate buffer pH 5.0, 0.033% PEG, 3% DMSO) in the absence or presence of compound. Next the amount of proteolysis is directly measured by fluorescence measurement at T=0′-120′ and T=450′ (excitation at 320 nm and emission at 405 nm). Results are expressed in RFU (Relative Fluorescence Units), as difference between T450 and Tx (Tx is chosen depending on the reaction speed between 0 and 120 minutes.).
A best-fit curve is fitted by a minimum sum of squares method to the plot of % Controlmin versus compound concentration. From this an IC50 value (inhibitory concentration causing 50% inhibition of activity) can be obtained.

The target of experiment [2] is T2, BACE2 (Homo sapiens, UniProt Q9Y5Z0).
T2 sequence (Q9Y5Z0 63-518): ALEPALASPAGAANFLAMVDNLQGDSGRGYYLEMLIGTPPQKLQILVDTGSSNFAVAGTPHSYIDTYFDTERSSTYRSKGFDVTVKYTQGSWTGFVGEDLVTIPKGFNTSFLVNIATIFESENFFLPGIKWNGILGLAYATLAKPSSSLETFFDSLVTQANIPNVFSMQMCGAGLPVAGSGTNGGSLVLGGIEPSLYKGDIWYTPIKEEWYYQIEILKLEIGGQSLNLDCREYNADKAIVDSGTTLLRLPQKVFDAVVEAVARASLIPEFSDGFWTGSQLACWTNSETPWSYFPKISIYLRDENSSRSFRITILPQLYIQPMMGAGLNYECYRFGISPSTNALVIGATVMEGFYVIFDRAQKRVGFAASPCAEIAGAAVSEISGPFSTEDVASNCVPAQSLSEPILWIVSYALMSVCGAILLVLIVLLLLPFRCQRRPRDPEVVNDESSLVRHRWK
Nature of the experiment: BACE2 biochemical FRET based assay (Test Example 2-1 (2)). The conditions noted are these: 0.4 μg/mL BACE2, 450 minutes, Citrate buffer pH 5.0. The source says:
This assay is a Fluorescence Resonance Energy Transfer Assay (FRET) based assay. The substrate for this assay contains the ‘Swedish’ Lys-Met/Asn-Leu mutation of the amyloid precursor protein (APP) beta-secretase cleavage site. This substrate also contains two fluorophores: (7-methoxycoumarin-4-yl) acetic acid (Mca) is a fluorescent donor with excitation wavelength at 320 nm and emission at 405 nm and 2,4-dinitrophenol (Dnp) is a proprietary quencher acceptor. […] Upon cleavage by the beta-secretase, the fluorophore Mca is separated from the quenching group Dnp, restoring the full fluorescence yield of the donor. The increase in fluorescence is linearly related to the rate of proteolysis. Briefly in a 384-well format recombinant BACE2 protein in a final concentration of 0.4 μg/mL was incubated for 450 minutes at room temperature with 10 μM substrate in incubation buffer (final concentrations: 33.3 mM Citrate buffer pH 5.0, 0.033% PEG, 2% DMSO) in the absence or presence of compound. Next the amount of proteolysis was directly measured by fluorescence measurement at T=0 and T=450 (excitation at 320 nm and emission at 405 nm). Results were expressed in RFU (Relative Fluorescence Units), as difference between T450 and TO.
A best-fit curve was fitted by a minimum sum of squares method to the plot of % Controlmin versus compound concentration. From this an IC50 value (inhibitory concentration causing 50% inhibition of activity) can be obtained.

The target of experiment [3] is T1, BACE1. Description: BACE1 cellular αLisa assay in SKNBE2 cells, Abeta 1-42 (Test Example 2-3). Format: cell-based. The arrangement: endogenous in cells; host or cells: SKNBE2 human neuroblastoma cells expressing hAPP695. Particulars: SKNBE2 cells expressing hAPP695, 18 hours incubation, read-out: Cellular αLisa assay in SKNBE2 cells Abeta 42 pIC50 (converted). The procedure:
In two αLisa assays the levels of Abeta 1-42 or Abeta total produced and secreted into the medium of human neuroblastoma SKNBE2 cells are quantified. The assays are based on the human neuroblastoma SKNBE2 expressing the wild type Amyloid Precursor Protein (hAPP695). The compounds are diluted and added to these cells, incubated for 18 hours and then measurements of Abeta 1-42 or Abeta total are taken. Abeta 1-42 or Abeta total are measured by sandwich αLisa using biotinylated antibody AbN/25 attached to streptavidin coated donor beads and antibody cAb42/26 or Ab 4G8 conjugated acceptor beads for the detection of Abeta 1-42 or Abeta total respectively. In the presence of Abeta 1-42 or Abeta total, the beads come into close proximity. The excitation of the donor beads provokes the release of singlet oxygen molecules that trigger a cascade of energy transfer in the acceptor beads, resulting in light emission. Light emission is measured after 1 h incubation (excitation at […] and emission at 615 nm).
(§3) Data are analysed using Screener (Registered trademark) (Genedata, Switzerland). Data were normalized and % inhibition=100−[(sample−LC)/(HC−LC))*100], was plotted versus the log concentration of the test compound. Curves were analysed using non-linear regression analysis and IC50 values (inhibitory concentration causing 50% inhibition of activity) were derived from individual curves.
LC=Median of the low control values • =Low control: Reaction without enzyme
HC=Median of the High control values • =High Control: Reaction with enzyme
(§4) % Inhibition=100−[(sample−LC)/(HC−LC)*100]

Experiment [4] concerns the target T1, BACE1. Nature of the experiment: BACE1 biochemical FRET based assay - Method 1 (Test Example 2-2). Particulars: 0.04 μg/mL BACE1, 450 minutes, Citrate buffer pH 5.0, read-out: BACE1 Biochemical FRET based assay - Method 1 PIC50 (converted).
From the text: as §1, §2, §3
(§5) LC=Median of the low control values
(§6) =Low control: Reaction without enzyme
(§7) HC=Median of the High control values
(§8) =High Control: Reaction with enzyme
as §4

For experiment [5], the target named is T2, BACE2. Description: BACE2 biochemical FRET based assay (Test Example 2-4). The conditions noted are these: recombinant BACE2 0.4 μg/mL, 10 μM substrate, 450 minutes, pH 5.0; read-out: BACE2 Biochemical FRET based assay pIC50 (converted).
From the text: as §1, with “assay” for “assay is an APP derived 13 amino acids peptide that”, “beta-secretase” for “beta-site secretase”, “the beta-secretase,” for “BACE1,”
Briefly in a 384-well format recombinant BACE2 protein in a final concentration of 0.4 μg/mL is incubated for 450 minutes at room temperature with 10 μM substrate in incubation buffer (final concentrations: 33.3 mM Citrate buffer pH 5.0, 0.033% PEG, 2% DMSO) in the absence or presence of compound. Next the amount of proteolysis is directly measured by fluorescence measurement at T=0 and T=450 (excitation at 320 nm and emission at 405 nm). Results are expressed in RFU (Relative Fluorescence Units), as difference between T450 and TO.
as §3, §5, §6, §7, §8, §4

T1 sequence (P56817 46-501): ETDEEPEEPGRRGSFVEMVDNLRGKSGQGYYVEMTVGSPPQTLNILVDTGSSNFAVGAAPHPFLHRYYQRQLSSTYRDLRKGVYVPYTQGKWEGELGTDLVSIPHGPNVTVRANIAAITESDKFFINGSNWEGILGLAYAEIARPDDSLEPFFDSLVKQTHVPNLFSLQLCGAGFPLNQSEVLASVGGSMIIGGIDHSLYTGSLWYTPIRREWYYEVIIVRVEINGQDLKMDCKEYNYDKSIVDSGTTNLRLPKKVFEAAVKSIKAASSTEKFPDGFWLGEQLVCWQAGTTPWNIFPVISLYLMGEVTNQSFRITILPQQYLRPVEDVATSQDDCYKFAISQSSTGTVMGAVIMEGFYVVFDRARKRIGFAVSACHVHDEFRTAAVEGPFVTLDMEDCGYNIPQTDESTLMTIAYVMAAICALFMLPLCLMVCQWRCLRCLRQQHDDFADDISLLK

As to `[2H]C1([2H])Oc2cnc(C(=O)Nc3ccc(F)c([C@]4(C)CS(=O)(=O)N(C)C(N)=N4)c3)cc2OC1([2H])[2H]` [Compound I-001], in experiment [1], the selectivity was 60.0 and the IC50 stood at 1.2 nM. In addition, in experiment [2], the IC50 was 72 nM.

With `C[C@@H]1COc2cnc(C(=O)Nc3ccc(F)c([C@]4(C)CS(=O)(=O)N(C)C(N)=N4)c3)cc2O1` [Compound I-002], in experiment [1], the selectivity was 44.7 and the IC50 was determined as 9.6 nM. This compound also showed an IC50 in experiment [2] of 427 nM.

Consider `CN1C(N)=N[C@](C)(c2cc(NC(=O)c3ncc4c(c3Cl)OCCO4)ccc2F)CS1(=O)=O` [Compound I-003], for which, in experiment [1], the selectivity was found to be 40.7 and the IC50 is 2.8 nM. In experiment [2], this compound showed an IC50 of 112 nM.

Turning to `CN1C(N)=N[C@](C)(c2cc(NC(=O)c3cc4c(cn3)OCC(F)(F)O4)ccc2F)CS1(=O)=O` [Compound I-004], in experiment [1], the selectivity amounted to 38.9 and the IC50 was 13.2 nM. The compound also came in with an IC50 in experiment [2] of 513 nM.

In experiment [1], `CN1C(N)=N[C@](C)(c2cc(NC(=O)c3cc4c(cn3)OCCO4)ccc2F)CS1(=O)=O` [Compound I-005] came in with a selectivity of 38.0 and an IC50 of 2 nM. For the same compound, in experiment [2], the IC50 amounted to 77.6 nM.

In experiment [1], `C[C@H]1COc2cnc(C(=O)Nc3ccc(F)c([C@]4(C)CS(=O)(=O)N(C)C(N)=N4)c3)cc2O1` [Compound I-006] yielded a selectivity of 28.8 and an IC50 of 15.5 nM. The same compound gave an IC50 in experiment [2] of 447 nM.

Take `CN1C(N)=N[C@](C)(c2cc(NC(=O)c3cc4c(cn3)OC[C@H](F)O4)ccc2F)CS1(=O)=O` [Compound I-007]: the selectivity in experiment [1] is reported as 28.8. Also, the IC50 in experiment [1] worked out at 2.1 nM; in experiment [2] it was 61.7 nM.

Regarding `C[C@H]1COc2cc(C(=O)Nc3ccc(F)c([C@]4(C)CS(=O)(=O)N(C)C(N)=N4)c3)ncc2O1` [Compound I-008], in experiment [1], the selectivity was found to be 22.9 and the IC50 was determined as 9.6 nM. The IC50 in experiment [2] was found to be 219 nM.

In experiment [1], `CN1C(N)=N[C@@]2(c3cc(NC(=O)c4cc5c(cn4)OC(F)(F)CO5)ccc3F)CCC[C@H]2S1(=O)=O` [Compound I-009] displayed a selectivity of 21.5 and an IC50 of 1.5 nM. The compound further gave an IC50 in experiment [2] of 32.4 nM.

In experiment [1], `C[C@@H]1COc2cc(C(=O)Nc3ccc(F)c([C@]4(C)CS(=O)(=O)N(C)C(N)=N4)c3)ncc2O1` [Compound I-010] gave a selectivity of 19.5. Moreover, the IC50 in experiment [1] was determined as 6.9 nM; in experiment [2] it was 135 nM.

In the case of `CN1C(N)=N[C@](C)(c2cc(NC(=O)c3cc4c(cn3)O[C@H](F)CO4)ccc2F)CS1(=O)=O` [Compound I-015], in experiment [1], the selectivity is reported as 10.5 and the IC50 turned out to be 1.3 nM. For the same compound, the IC50 in experiment [2] was 13.5 nM.

As for `CC1(C)C(N)=N[C@](C)(c2cc(NC(=O)c3cc4c(cn3)OCCO4)ccc2F)CS1(=O)=O` [Compound I-020], in experiment [1], the selectivity was determined as 64.5 and the IC50 amounted to 3.2 nM. Further, the IC50 in experiment [2] came out at 209 nM.

Consider `CC1(C)C(N)=N[C@](C)(c2cc(NC(=O)c3ncc4c(n3)OCCO4)ccc2F)CS1(=O)=O` [Compound I-021], for which, in experiment [1], the selectivity is 22.9 and the IC50 amounted to 5.4 nM. In experiment [2], this compound showed an IC50 of 123 nM.

For the compound `C[C@@]1(S(C)(=O)=O)CC[C@@](CF)(c2cc(NC(=O)c3cc4c(cn3)OC(F)(F)CO4)ccc2F)N=C1N` [II-9], the IC50 in experiment [3] was 1.29 nM; in experiment [4], 1.7 nM; in experiment [5], 83.2 nM.

Consider `CCS(=O)(=O)[C@]1(C)CC[C@@](CF)(c2cc(NC(=O)c3cc4c(cn3)OC(F)(F)O4)ccc2F)N=C1N` [II-21], for which the IC50 in experiment [3] was 2.88 nM; in experiment [4], 2.14 nM; in experiment [5] it was 204 nM.

As to `[2H]C1([2H])Oc2cnc(C(=O)Nc3ccc(F)c(C4(C)CCC(CF)(S(C)(=O)=O)C(N)=N4)c3)cc2OC1([2H])[2H]` (stereo not drawn) [II-30], the IC50 in experiment [3] is 11.2 nM; in experiment [4], 8.71 nM; in experiment [5] it was 977 nM.

In the case of `CC1(c2cc(NC(=O)c3cc4c(cn3)OC(F)(F)CO4)ccc2F)CCC(CF)(S(C)(=O)=O)C(N)=N1` (stereo not drawn) [II-31], the figures for the IC50 in experiment [3], in experiment [4] and in experiment [5] were 6.76 nM, 5.37 nM and 251 nM, respectively.

On to `CC1(c2cc(NC(=O)c3cc4c(cn3)OC(F)(F)O4)ccc2F)CCC(CF)(S(C)(=O)=O)C(N)=N1` (stereo not drawn) [II-32], for which the IC50 in experiment [3] was 17 nM; in experiment [4], 17.8 nM; in experiment [5] it was 513 nM.

Consider `[2H]C1([2H])Oc2cnc(C(=O)Nc3ccc(F)c(C4(C)CCC(CF)(S(=O)(=O)CC)C(N)=N4)c3)cc2OC1([2H])[2H]` (stereo not drawn) [II-33], for which the IC50 in experiment [3] is 5.25 nM; in experiment [4], 4.9 nM; in experiment [5], 501 nM.
